Read-outs that look alike come from different tables or passages of the source.
Experiments:
[1] = prior art reports; cited from earlier work
[2] = Storability of crystals at room temperature; type: physicochemical; conditions: room temperatures, relative humidity below 60%
Text: The new crystalline orthorhombic anhydrous lactitol β has a good flowability and storability, since it is stable at room temperatures, the relative humidity being below 60%.

[3] = Crystal form after milling (DSC, X-ray powder diffraction); type: physicochemical; conditions: laboratory hammer mill, 10 g/min, 600 rpm
Description: Good quality anhydrous β lactitol crystals (lactitol assay 99.9%, enthalpy 169.4±0.5 J/g) was milled with a small laboratory hammer mill (Culatti). The feed rate was 10 g/min and the hammer speed 600 rpm. Fine lactitol particles were obtained.

[4] = Hygroscopicity / water sorption of lactitol crystals; type: physicochemical
Description: The water sorption of a sample of β crystals was less than about 0.3% of water in 45 days even when the relative humidity of the ambient air was 75% at 40° C.

For `OC[C@@H](O)[C@@H](O[C@@H]1O[C@H](CO)[C@H](O)[C@H](O)[C@H]1O)[C@H](O)[C@@H](O)CO` [A1 anhydrous lactitol, lactitol], the hygroscopicity [1] is given as “hygroscopic”.
In the case of `OC[C@@H](O)[C@@H](O[C@@H]1O[C@H](CO)[C@H](O)[C@H](O)[C@H]1O)[C@H](O)[C@@H](O)CO` [anhydrous lactitol β, lactitol], the stability / storability [2] is reported as “stable”, the “crystal form after milling” value [3] is reported as “still in the anhydrous β form” and the hygroscopicity [4] is reported as “very low hygroscopicity”. For the same compound, the hygroscopicity ([4]; 25° C. and 60% relative humidity) was “very low hygroscopicity”, the hygroscopicity ([4]; 40° C. and 75% relative humidity) was “very low hygroscopicity” and the water sorption ([4]; 40° C., 75% relative humidity, 45 days) was “less than 0.3%”.
In the case of `OC[C@@H](O)[C@@H](O[C@@H]1O[C@H](CO)[C@H](O)[C@H](O)[C@H]1O)[C@H](O)[C@@H](O)CO` [lactitol anhydride], the hygroscopicity [1] is listed as “highly hygroscopic”.
In the case of `OC[C@@H](O)[C@@H](O[C@@H]1O[C@H](CO)[C@H](O)[C@H](O)[C@H]1O)[C@H](O)[C@@H](O)CO` [α lactitol, lactitol], the hygroscopicity [1] is listed as “low hygroscopicity”.

Source: patent publication US6872414B1, “Anhydrous lactitol crystals, a product containing the same and a process for the preparation thereof as well as use thereof” (Xyrofin Oy, priority 1999, dated 2005)
